Laboratory results published in PMC9825896, “Discovery of an L‐like Configuration for 3’‐Fluoro‐5’‐norcarbonucleoside Phosphonates as Potent Anti‐HIV Agents” (Chemmedchem, 2022).
pEC50: −log10 of the molar value. Like-named read-outs stand apart in the source and are kept apart here.

Key:
HIV‐1‐71361‐1 = experiment: Anti-HIV-1 activity in T CD4+ H9 cells, resistant strain 71361-1; format: cell-based; conditions: Human immunodeficiency virus 1, H9
Procedure: (§1) Peripheral blood mononuclear cells (PBMC) from healthy donors were isolated and stimulated for 3 days with […] of phytohemagglutinin‐P (PHA‐P, Sigma) and 5 IU/mL of recombinant human interleukin‐2 (rHuIL‐2, Roche). PBMC were growth under CO2 in a humid atmosphere at 37 °C in RPMI‐1640 GlutaMAX medium supplemented with antibiotics (penicillin, streptomycin, neomycin), 10 % fetal calf serum (FCS, previously inactivated by heat) and 10 UI/mL of rHuIL‐2. The HIV‐1 LAI strain was previously described.[19] Resistant viral strains are from the NIH AIDS Research & Reference Reagent Program (HIV‐1–52534‐2, HIV‐1–56252‐1, HIV‐1–71361‐1, and HIV‐1–7324‐1) carry mutations in RT.[16]
(§2) PHA‐P activated PBMCs (1.5×10^5 cells) were pre‐treated for 30 min by increasing concentrations of the various compounds to be tested and then infected with […] infectious tissue culture doses 50 % (TCID50) of the HIV‐1‐LAI. Supernatants were collected at day 7 post infection and stored at ‐ 20 °C. Viral replication was measured by quantifying reverse transcriptase activity in cell culture supernatants by the use of Lenti kit RT (Cavidi). Cytotoxicity of the compounds was evaluated in uninfected PHA‐P PBMC by MTT assay (Promega) on day 7. Experiments were performed in triplicate and repeated with another blood donors. Data analyses were performed using SoftMax® Pro 4.6 software (Molecular Devices). Percent of inhibition of RT activity or cell viability were plotted versus compound concentration and fitted with quadratic curves to determine 50 % effective concentration (EC50) and 50 % cytotoxic concentration (CC50). The viral resistant strains were amplified and the viral stocks titrated using cells of the H9 line.[20] More specifically, with regard to the antiviral test, the cells were distributed in the wells of 96‐well microplates at the rate of 50,000 cells per well. They were then pretreated for 30 minutes with increasing concentrations of the various compounds to be tested and then infected with 125 TCID50 of the various resistant strains. Seven and 14 days after infection, culture supernatants were collected and frozen at −20 ° C until measurement of viral replication via quantification of the enzymatic activity of the TI. The EC50 was calculated as previously described. A possible cytotoxicity of the molecules towards the cells of the H9 line was assessed by microscopic observation throughout the cell cultures.

HIV‐1‐52534‐2 = experiment: Anti-HIV-1 activity in T CD4+ H9 cells, resistant strain 52534-2; format: cell-based; conditions: strain 52534‐2, T CD4+ H9 cells; for pEC50: Human immunodeficiency virus 1, mean from three experiments
Procedure: as §1, §2

HIV‐1 LAI = experiment: Anti-HIV-1 activity in T CD4+ H9 cells, LAI reference strain; format: cell-based; conditions: Human immunodeficiency virus 1, mean from three experiments
Procedure: as §1, §2

HIV‐1‐56252‐1 = experiment: Anti-HIV-1 activity in T CD4+ H9 cells, resistant strain 56252-1; format: cell-based; conditions: Human immunodeficiency virus 1; strain 56252‐1, T CD4+ H9 cells, mean from three experiments
Procedure: as §1, §2

[1] = test system: human peripheral blood mononuclear cells (PBMC); design: method as in earlier work; conditions: ref 4b, cited from earlier work; for CC50: read-out: CC50, cytotoxic concentration of drug required to reduce cell growth by 50 %
HIV‐1‐7324‐1 = experiment: Anti-HIV-1 activity in T CD4+ H9 cells, resistant strain 7324-1; format: cell-based; conditions: Human immunodeficiency virus 1; strain 7324‐1, T CD4+ H9 cells, mean from three experiments
Procedure: as §1, §2

HIV‐1 LAI strain [2] = conditions: ref 4b, cited from earlier work; for pEC50: read-out: EC50, effective concentration of drug required to reduce viral replication by 50 %, HIV-1 LAI in human PBMC; for SI = CC50/EC50: HIV-1 LAI in PBMC
HIV‐1 LAI strain [3] = experiment: Anti-HIV-1 LAI activity in PHA-P activated PBMC (RT activity in supernatants); format: cell-based; conditions: for pEC50: read-out: EC50, effective concentration of drug required to reduce viral replication by 50 %
Procedure: as §1, §2

[4] = test system: human peripheral blood mononuclear cells (PBMC); experiment: Cytotoxicity in uninfected PHA-P PBMC by MTT assay; format: cell-based
Procedure: as §1, §2

[5] = Cytotoxicity in uninfected PHA-P PBMC by MTT assay; format: cell-based, human; conditions: human
Procedure: as §1, §2

[6] = Human immunodeficiency virus 1, 168 h, HIV-1 LAI in human PBMC, day 7 post infection, mean from 3 blood donors
[7] = uninfected PBMC, MTT, day 7, mean from 3 blood donors, read-out: CC50, cytotoxic concentration of drug required to reduce cell growth by 50 %
[8] = Human immunodeficiency virus 1, PBMC, 168 h

Row | SMILES | pEC50 (HIV‐1‐71361‐1) | pEC50 (HIV‐1‐52534‐2) | pEC50 (HIV‐1 LAI) | pEC50 (HIV‐1‐56252‐1) | CC50 [1] | cytotoxicity (in words) [1] | pEC50 (HIV‐1‐7324‐1) | pEC50 (HIV‐1 LAI strain [2]) | SI = CC50/EC50 (HIV‐1 LAI strain [3]; HIV-1 LAI in PBMC) | pEC50 (HIV‐1 LAI strain [3]; [6]) | cytotoxicity (in words) ([4]; PBMC) | CC50 at 7 days [5, 7] | pEC50 (HIV‐1 LAI strain [3]; [8]) | CC50 at 7 days [5] | SI = CC50/EC50 (HIV‐1 LAI strain [2]) | SI = CC50/EC50 (HIV‐1 LAI strain [2]; listed as Tenofovir) | antiviral activity (in words) (HIV‐1‐52534‐2) | anti‐HIV‐1 activity, fold greater than that of the D‐like enantiomer (HIV‐1 LAI strain [3]; HIV-1 LAI in PBMC, EC50 ratio versus D-like bis(POM) prodrug) | anti‐HIV‐1 activity, fold greater than Tenofovir (HIV‐1 LAI strain [3]; HIV-1 LAI in PBMC, EC50 ratio versus Tenofovir) | cytotoxicity (in words) [4]
1 | Nc1ncnc2c1ncn2[C@H]1C=C(F)[C@@H](OCP(=O)(O)O)C1 (racemic) [(±)‐1] | 5.43 | ≤ 5.00 | 6.18 | 5.00 | ≥ 10 µM | without additional cytotoxicity | 6.77 | 6.06 | – | – | – | – | – | – | – | – | – | – | – | –
2 | Nc1ncnc2c1ncn2[C@H]1C=C(F)[C@@H](OCP(=O)(O)O)C1 [(+)‐1] | – | – | – | – | – | – | – | – | ≥2.32 | 5.37 | No cytotoxicity | ≥ 10 µM | – | – | – | – | – | – | – | –
3 | CC(C)(C)C(=O)OCOP(=O)(CO[C@H]1C[C@@H](n2cnc3c(N)ncnc32)C=C1F)OCOC(=O)C(C)(C)C [(+)‐9, bis‐(Pivaloyloxymethyl)‐((1’S,4’R)‐4‐(6‐amino‐9H‐purin‐9‐yl)‐2‐fluorocyclopent‐2‐en‐1‐yl)oxymethyl‐phosphonate] | 6.17 | ≤ 5.00 | 5.73 | 6.02 | – | – | 6.62 | – | – | – | – | – | 6.29 | ≥ 10 µM | – | – | – | – | – | –
4 | C[C@H](Cn1cnc2c(N)ncnc21)OCP(=O)(O)O [(R)‐PMPA, reference compound] | 7.00 | 5.21 | 6.89 | 5.78 | ≥ 10 µM | – | 7.00 | 5.96 | – | – | – | – | – | – | ≥9.1 | 9.1 | – | – | – | –
5 | Nc1ncnc2c1ncn2[C@@H]1C=C(F)[C@H](OCP(=O)(O)O)C1 [(−)‐1] | 6.05 | ≤ 5.00 | 6.48 | 6.16 | – | – | 6.38 | – | ≥52.6 | 6.72 | No cytotoxicity | ≥ 10 µM | – | – | – | – | – | – | – | –
6 | CC(C)(C)C(=O)OCOP(=O)(CO[C@@H]1C[C@H](n2cnc3c(N)ncnc32)C=C1F)OCOC(=O)C(C)(C)C [(−)‐9, bis‐(Pivaloyloxymethyl)‐((1’R,4’S)‐4‐(6‐amino‐9H‐purin‐9‐yl)‐2‐fluorocyclopent‐2‐en‐1‐yl)oxymethyl‐phosphonate] | 6.96 | 6.24 | 6.96 | 7.05 | – | – | 8.00 | – | – | – | – | – | 7.20 | 5.2 µM | – | – | remains significantly active | 8 fold | 17 fold | some cytotoxicity
